These results are taken from PubChem BioAssay (NCI).

Common to all, as to test: growth of human tumour cells (NCI), 48 h
Test [1] relates to CCRF-CEM leukemia.
Test [2] deals with HCC-2998 colon.
Test [3] relates to HCT-15 colon.
Test [4] relates to K-562 leukemia.
For test [5], the system named is LOX IMVI melanoma.
Test [6] deals with MOLT-4 leukemia.
Test [7] relates to NCI/ADR-RES ovarian.
Test [8] has as its system RPMI-8226 leukemia.
In test [9] the test system is SK-MEL-2 melanoma.
Test [10] relates to SN12C renal.

Each structure is given as a SMILES string.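 Dose response: 5 concentrations. Exposure: 48 h. Format: 96-well plates. Endpoint: linear interpolation; highest concentration if not reached. Here, GI50 denotes the concentration required for 50% inhibition of growth. TGI: total growth inhibition.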 Where only a bound is given, the exact number is not on record here.

On to `O=c1c2ccccc2c(=O)c2c1[nH]c1c(-c3ccccc3)c(-c3ccccc3)c(=O)c12`, for which the GI50 in [1] is 1.46 µM; in test [2], 2.09 µM; in test [3] it was 1.31 µM; in test [4] it was 3.68 µM; in test [5], 2.55 µM; in test [6], 1.92 µM. Moreover, the GI50 in test [7] was 3.76 µM; in test [8], 2.07 µM; in test [9], 2.84 µM; in [10], 3.57 µM. Besides, the TGI is 11 µM in [1]; 5.05 µM in [2]; 4.22 µM in [3]; greater than 100 µM in test [4]; 6.2 µM in test [5]; 13.3 µM in test [6]. In addition, the TGI was 21.7 µM in test [7], 12 µM in test [8], 15.6 µM in [9] and 16 µM in [10].
`COc1cc(C(=O)c2cc(C)c3[nH]c4ccc(C)cc4c3c2C)cc(OC)c1OC`: the GI50 in test [1], in [2], in test [3], in [4], in test [5] and in test [6] was less than 0.01 µM in each case. Moreover, the GI50 in test [7], in test [8] and in [10] was less than 0.01 µM throughout. The TGI in test [1], in test [2], in [3], in test [4], in test [5] and in test [6] was greater than 100 µM in each case. Also, the TGI was greater than 32.9 µM in test [7], greater than 100 µM in test [8], greater than 100 µM in test [9] and greater than 100 µM in test [10].
On to `CCSc1nc(SCC)c2cn[nH]c2n1`, for which the GI50 is 41.5 µM in test [1]; 35.6 µM in [2]; 66.3 µM in test [3]; 67.1 µM in [4]; 57.1 µM in test [5]; greater than 100 µM in test [6]. The GI50 in [7] was greater than 100 µM; in test [8] it was 40.2 µM; in [9], 61.5 µM; in test [10] it was 47.7 µM. Moreover, the TGI in test [1], in test [2], in test [3], in test [4], in test [5] and in test [6] was greater than 100 µM throughout. In addition, the TGI in [7], in test [8], in [9] and in test [10] was greater than 100 µM each time.
Consider `C#Cc1c(I)n(C2OC(CO[Si](C)(C)C(C)(C)C)C3OC(C)(C)OC32)c(=O)[nH]c1=O` (centres undefined), for which the GI50 in test [1] was 4 µM; in test [2] it was 2.36 µM; in test [3], 4.09 µM; in test [4] it was 2.08 µM; in test [5] it was 3.42 µM; in [6], 2.17 µM. Further, the GI50 in test [7] is 23.5 µM; in test [8], 3.63 µM; in [9], 5.35 µM; in [10] it was 18.5 µM. The TGI in test [1] was 11.9 µM; in [2], 6.38 µM; in test [3], greater than 100 µM; in test [4], 5.37 µM; in [5], 18.5 µM; in [6], 6.69 µM. The TGI in test [7] amounted to 59.1 µM; in test [8], 13.7 µM; in test [9] it was 26.1 µM; in test [10] it was 37.6 µM.
Turning to `CCCCON(OC(=O)c1ccc2ccc3cccc4ccc1c2c34)C(C)=O`, the GI50 is 16.3 µM in test [1]; 38.5 µM in test [2]; 30.9 µM in test [3]; 20.9 µM in test [4]; 16.9 µM in test [5]; 17.4 µM in test [6]. Further, the GI50 in test [7] is 21.9 µM; in [8], 25.5 µM; in test [9], 23.9 µM; in test [10], 19.6 µM. Also, the TGI in [1] was 41.4 µM; in test [2], greater than 100 µM; in [3], greater than 100 µM; in [4], 50.2 µM; in test [5], 33.1 µM; in test [6] it was 37.2 µM. In addition, the TGI in test [7] was found to be 60.7 µM; in test [8], 80.4 µM; in [9] it was 68.9 µM; in test [10], 39.2 µM.
`COc1ccc(CC2NCCc3cc(OC)c(OC)cc32)cc1Br` (centres undefined): the TGI in test [1] is greater than 85.3 µM; in test [2], 34.6 µM; in test [3], greater than 100 µM; in test [4], 45.6 µM; in [5], 47.1 µM; in test [6], 73.3 µM. The TGI in [7] was greater than 100 µM; in test [8], 50.2 µM; in test [9], 61.6 µM; in [10], greater than 100 µM.
